In ChEMBL document CHEMBL3507680, “University of Dundee, Gates Library screen for HepG2 cell viability”:

Assay: Human HepG2 cell viability assay in 384 well format
Assay type: toxicity, cell-based
Parameters: dose 125 nL, time 70.5 hour; concentration not given beside the values
Settings: HepG2 cells, read-out: Inhibition

Row | SMILES | cytotoxicity at 70.5 h [%]
1 | Cc1ccc(N2C[C@H]3CCC[C@@H](CN(C)C)[C@H]3C2)nn1 | -0.102
2 | CCN1C(=O)CCCC12CCCN(C(=O)c1ccncc1F)C2 (centres undefined) | -2.27
3 | COc1ccc(CNCCc2cc(F)cc3c2OCOC3)c(OC)c1 | 25.5
4 | CC(C)c1ncc(C(=O)N(C)c2ccc(Br)cn2)s1 | 5.45
5 | O=C(c1cnccn1)N1CCC2(CC1)C(=O)NCC2c1ccccc1 (centres undefined) | -6.72
6 | Cc1n[nH]c(C)c1Sc1ccccc1NC(=O)N1CCOCC1 | -2.37
7 | CN1CCC(Cc2cnc(CNC(=O)Cc3cccc(F)c3)cn2)CC1 | -2.96
8 | CC(=O)N(C)Cc1cccc(NC(=O)N(C)Cc2nccs2)c1 | -4.8
9 | CC[C@H](C)Nc1ncc(-c2cccc(NC(=O)CNC)c2)cn1 | -0.898
10 | NC(=O)c1ccccc1NC(=O)CCN1CCN(c2ccccc2)CC1 | -9.88
11 | CC(NC(=O)CCCOc1ccc(F)cc1)c1nnc2n1CCC2 (centres undefined) | -1.76
12 | COCC1CN(C(=O)Cc2ccccn2)Cc2cn(CC3CC3)nc21 (centres undefined) | -14.6
13 | CCN(CC)C(=O)CSc1sc2c(O)cc(=O)[nH]c2c1C(N)=O | -14.3
14 | O=C1CC(NS(=O)(=O)c2ccccc2)CN1Cc1ccccc1 (centres undefined) | -5.96
15 | COCC(=O)NCC[C@H]1CC(C)(C)Oc2ccc(OC)cc21 | -2.28
16 | O=C(CC1CC1)N1CCO[C@H]2[C@H](OCCCn3cccn3)CC[C@@H]21 | -4.17
17 | COc1cc(C(C)=O)ccc1OCC(=O)N(CC(C)C#N)C1CC1 (centres undefined) | -7.18
18 | COc1cc(C(=O)NS(=O)(=O)c2cncc(Br)c2)cc(Cl)c1OC | -15.8
19 | Cc1cc(CN2CC[C@H]3[C@H]2CCN3C)oc1C | -5.26
20 | O=c1cc(-c2ccc(F)cc2)nc2n1CCCCC2 | -14
21 | Cc1ccc(CNC(=O)NCC(=O)NC(C)(C)C)c(N2CCCC2)c1 | -16.8
22 | Cn1c(CCNc2nccnc2C#N)nc2ccc(F)cc21 | 2.09
23 | CNc1cc(C(=O)N(C)Cc2cc(-c3cccs3)n[nH]2)ccn1 | 0.513

Row | SMILES | cytotoxicity at 70.5 h [%]
24 | Cc1nccn1CC1CCCN1S(=O)(=O)Cc1ccccc1 (centres undefined) | -22.1
25 | Cc1cc(C(=O)NC2=NCCS2)c(C)n1-c1ccccn1 | -6.96
26 | NC(=O)CN1CCC(c2csc(Nc3cnccn3)n2)CC1 | -4.74
27 | Cc1cnn(CC2CCCN2Cc2nnc(Cc3ccccc3)o2)c1 (centres undefined) | 8
28 | O=C1CC(c2ncc(-c3ccc4c(c3)OCCO4)[nH]2)CN1C1CCCC1 (centres undefined) | -4.48
29 | CCCc1cc(NCc2cc(C)on2)n2nccc2n1 | 14.2
30 | O=C(c1ccccc1)N1CCC2(CCCN2c2ncccn2)CC1 | 3.93
31 | CC(=O)N1CCC2(CC1)c1ncc(-c3ccccc3)n1CCN2C(C)=O | -5.58
32 | CC(C)N1C[C@@H]2OCC(=O)N(Cc3ccccc3)[C@@H]2C1 | -10.2
33 | CCC(c1ccccc1)N1CCN(CCO)CC1 (centres undefined) | -6.76
34 | NS(=O)(=O)Cc1ccc(CNc2cncc(-n3cccn3)n2)cc1 | -14
35 | C[C@@H]1CN(C(=O)C2(Cn3cccn3)CC2)CC[C@@]1(O)C1CCOCC1 | -0.0584
36 | O=C1COC2(CCN(c3ccccn3)CC2)CN1Cc1ccccn1 | 17.6
37 | CN1CC[C@]2(CN(CC3CCOC3)C[C@H]2c2ccccc2)C1=O (some centres undefined) | 16.2
38 | CCOCn1cc(NC(=O)C2CCN(S(C)(=O)=O)CC2)cn1 | -2.16
39 | CN1CCN(c2cc(CNC(=O)Cn3cccn3)ccn2)CC1 | 13.6
40 | CCOc1ncccc1C(=O)N1CCCC(n2nc(C)cc2C)C1 (centres undefined) | -5.39
41 | Cn1ccc(C(=O)N2CCN(CC(O)C(C)(C)C)CC2)cc1=O (centres undefined) | -5.62
42 | Cc1nc2ccc(C(=O)N3CCN(CCO)[C@@H]4CS(=O)(=O)C[C@@H]43)cc2o1 | -5.42
43 | Cc1ccc(-c2nc(CCNC(=O)C3CC(=O)N(C)C3)cs2)cc1 (centres undefined) | -98.5
44 | COCCNC(=O)c1cc(-n2cccc2)ccc1Cl | -23.7
45 | Cc1ccc(C)c(-n2ncc(C(=O)N(C)CCc3ccccn3)c2N)c1 | 4.61
46 | CCc1nc(C)c(C(=O)N(C)Cc2cnc3ccccn23)o1 | -7.82

Row | SMILES | cytotoxicity at 70.5 h [%]
47 | c1cnnc(NCC2CN(CCN3CCCCC3)CCO2)c1 (centres undefined) | -11.2
48 | Cc1ccc(C(=O)N2CCN(C(=O)Nc3ccccn3)CC2)o1 | 29.1
49 | COCc1nc(C(=O)N2CCN(c3nccc(OC)n3)CC2)cs1 | 14.1
50 | CC(=O)N1CCC(Cc2cncc(-c3c(C)n[nH]c3C)n2)C1 (centres undefined) | -9.36
51 | Cn1c(N)nnc1SCc1ccc(Cl)cc1Br | -11.2
52 | COC(=O)NCC(=O)N1CCCC1c1nc(-c2ccccc2F)c[nH]1 (centres undefined) | -3.18
53 | CC(C)c1nccn1-c1cncc(C2CCCN(C3CCCC3)C2)n1 (centres undefined) | 19.3
54 | COC(=O)c1ccc2c(-c3ccnc(NCCO)n3)c[nH]c2c1 | -1.71
55 | CC(C)=CCC1(CO)CCCN(Cc2nccs2)C1 (centres undefined) | -9.67
56 | CC(C)CN1C[C@@H]2CN(C(=O)[C@H]3CCCO3)C[C@@H]2C1=O | -14.1
57 | COc1ccc(C2=CCN(C(=O)CN(C)CC(N)=O)CC2)cc1 | -2.43
58 | Cc1ccc(CNCc2c[nH]nc2C(C)(C)C)c(OC2CCOC2)c1 (centres undefined) | -5.05
59 | CCc1cnc(N)nc1NCCC(=O)NC1CCCCC1 | -25.4
60 | O=C(O)C1(Cc2cc(-c3cccc(F)c3)no2)CCOCC1 | -24
61 | CN1CC(NC(=O)Nc2cnn(-c3ccccc3Cl)c2)CCC1=O (centres undefined) | -3.58
62 | CNS(=O)(=O)CCCNC(C)(C)c1nc(C)cs1 | -1.16
63 | CCOC(=O)c1n[nH]cc1-c1cncn1CCCn1nc(C)cc1C | -5.33
64 | CC1CCN(CCNC(=O)c2ccn(-c3ccccc3)n2)CC1 | -6.14
65 | CCOc1ncccc1CNC(=O)c1c(C)oc(C)c1C | -9.43
66 | CCOCCOc1ccccc1C(=O)N1C[C@H](C2CC2)[C@@H](N)C1 | 27.2
67 | CN(C)C(C(=O)N1CC(c2ccccn2)C1)c1ccc2c(c1)OCO2 (centres undefined) | -3.16
68 | COCC(=O)NCc1cc2n(n1)CCCN(Cc1ccccc1SC)C2 | -6.55
69 | Cc1ccccc1Cn1nnc2cc3c(cc2c1=O)OCCO3 | -9.38

Row | SMILES | cytotoxicity at 70.5 h [%]
70 | Cn1ncc2c1NC(=O)CC2c1cccs1 (centres undefined) | -4.29
71 | Cc1ccccc1-c1noc(CNc2ccc(F)cc2OCCO)n1 | 1.21
72 | O=S(=O)(c1cccs1)N1CC[C@H]2[C@H]1CCN2CC1CC1 | -9.72
73 | O=C(NC1CCCN(Cc2c(F)cccc2F)C1)c1cnccn1 (centres undefined) | 1.65
74 | CC(C)OCCC(=O)NCC(O)c1c(F)cccc1F (centres undefined) | -6.84
75 | CC1CCN(S(=O)(=O)NC(C)Cc2ccco2)CC1 (centres undefined) | -4.62
76 | N#Cc1c(N2CCOCC2)nsc1-c1cccnc1 | -4.2
77 | Cc1nccn1CCC1CCN(C(C)C)CC1 | -2.75
78 | Cc1ccnc(C(NC(=O)c2oc(C)nc2C)C2CC2)n1 (centres undefined) | -3.47
79 | CCN(Cc1nonc1C)C(=O)Cn1nc(C(F)(F)F)cc1C | -9.27
80 | O=C(C1CCOc2ccccc2C1)N1Cc2cnn(CCO)c2C1 (centres undefined) | 9.23
81 | CCN(CCc1nc2cc(C)ccc2[nH]1)C(=O)[C@@H](N)Cc1c[nH]cn1 | -11.4
82 | Cc1noc(C)c1C(=O)N1CCC2(CC(N(C)c3ccncn3)C2)C1 (centres undefined) | -6.65
83 | Cc1nc(N(C)C)nc2c1COCC21CCN(C(=O)NCC(C)C)C1 (centres undefined) | -7.67
84 | CN(Cc1cc(-c2ccccc2)no1)C(=O)CNS(C)(=O)=O | 23.3
85 | O=C(O)CC(NC(=O)c1cc(Br)c[nH]1)c1ccccc1 (centres undefined) | -7.36
86 | CCc1c(C(=O)N2CCC(CC(N)=O)CC2)cnn1C(C)(C)C | -3.41
87 | Cc1cccc(CN(C(=O)CCn2cncn2)C(C)C)c1 | -9.18
88 | COCCC(=O)N1CCC(Nc2ncc(Br)cn2)CC1 | -0.761
89 | Cc1noc(C2CCC3(CCN(C(=O)c4ccncn4)CC3)O2)n1 (centres undefined) | 3.42
90 | c1cncc(-c2nccc(CN3CCCC3)n2)c1 | 3.79
91 | Cc1n[nH]c(C)c1CCCN(C)Cc1c[nH]nc1-c1ccc(F)cc1 | -4.19
92 | Cn1ncc2c1C(COCC1CC1)CN(Cc1ccoc1)C2 (centres undefined) | -6.88

Row | SMILES | cytotoxicity at 70.5 h [%]
93 | O=C(O)CN1CCC2(CCc3ccccc32)CC1 | 13.9
94 | CCOCCN1CCN(Cc2cccc(C(=O)N(C)C)c2)CC1 | 40.4
95 | c1cnc(N2CCC(OCC3CCCCO3)CC2)nc1 (centres undefined) | -2.08
96 | CSCC(=O)N1CCc2c(cnc(C)c2-c2noc(-c3cc[nH]n3)n2)C1 | -12.6
97 | Cc1c(Cl)cc(C(=O)NCCc2ncnn2C)cc1Cl | -9.97
98 | O=C(N[C@@H]1CN(Cc2ccc(F)c(F)c2)C[C@H]1O)c1cscn1 | -5.02
99 | Cc1ccc(-n2ccnc2)c(C(=O)NCCOCC(F)(F)F)c1 | -8.14
100 | CCOCC1CN(C(=O)[C@H]2CCCO2)Cc2nnn(CC3CC3)c21 (some centres undefined) | -1.02
101 | CC(C)c1nn(C)c(Cl)c1CNCc1ccc2c(c1)OCO2 | -5.25
102 | CCN(C)S(=O)(=O)NCC(O)c1c(Cl)cccc1Cl (centres undefined) | 18.4
103 | CCc1nc(CN2CCCN(C(=O)c3ccccc3)CC2)cs1 | -1.48
104 | Clc1cnccc1N1CCCOCC1 | -5.38
105 | O=C(NCC1CC1)[C@@H]1C[C@@H]2OCCN[C@@H]2C1 | -2.73
106 | COCC(=O)N1CCCC(COc2ccccc2C)C1 (centres undefined) | 12.8
107 | O=C(c1cc[nH]c(=O)c1)N1CCn2c(nnc2-c2ccccc2)C1 | -4.86
108 | Cc1n[nH]cc1CNC1CCN(c2cccc(C(F)(F)F)c2)CC1 | 2.2
109 | O=C(NCC1CC1)C1CN(C(=O)c2cnccn2)CC12CCOCC2 (centres undefined) | -2.91
110 | O=C(Cc1cnn(-c2ccccc2)n1)NC1CCOCC1 | -0.727
111 | CC(=O)N1[C@H](CN(C)C)C[C@@H]2CN(C(=O)c3cncc(C)c3)CC[C@@H]21 | -10.6
112 | O=C(c1ccncc1)N1CCc2[nH]nc(Nc3ccccc3)c2C1 | 21.7
113 | CN1CC(C(=O)NCCc2ccc3c(c2)OCCO3)CC1=O (centres undefined) | -1.68
114 | O=C(c1cccnc1)N1CCCC1C1CCN(Cc2ccccc2)CC1 (centres undefined) | -13.7
